Assay [1] has as its system RAW 264.7 cells. The experiment in a line: Effect of inhibiting production of NO in LPS-stimulated RAW 264.7 cells (Griess reagent). Format: cell-based, mouse. The following applies: compound 2 μg/mL, RAW 264.7 cells stimulated with LPS 25 ng/mL. The procedure:
(§1) Effect of Inhibiting Production of NO and IL-6
(§2) Growth of RAW 264.7 cells (mouse macrophage strains) was maintained in an RPMI 1640 medium containing 10% fetal bovine serum (FBS) and an antibiotic (10% FBS/RPMI) under culture conditions of 5% CO2 at 37° C. Upon testing, RAW 264.7 cells were washed with cold Dulbecco's phosphate buffered saline and subsequently removed from the plastic culture bottle by use of EDTA/trypsin. The thus-removed cells were centrifuged-and washed, followed by dilution with 10% FBS/RPMI to 4×10^5/mL. The cell suspension (0.5 mL) was added to each well of a 24-well-plate, and cultured under 5% CO2, at 37° C. for 16 hours. […] The live cells were washed once with 1% FBS/RPMI. Each test compound was diluted with the same medium, to thereby adjust the concentration to a predetermined level, and the liquid containing the test compound was added to the washed cells. […] NO contained in the culture supernatant was quantitated for its stable form (NO2^−) by use of a Griess reagent kit (product of Wako Pure Chemical Industries Ltd.). IL-6 was quantitated by use of an ELISA kit (product of Amersham) in accordance with the manual thereof. […]
(Nitrite, measured by Griess reagent, commonly stands in for NO production.)

The test system of assay [2] is carrageenan-induced edema. The experiment in a line: Anti-inflammatory effect 1: effect against carrageenan-induced edema. Format: in vivo. The following applies: mouse, leg volume 9 days after carrageenan. An excerpt:
Anti-inflammatory Effect 1: Effect Against Carrageenan-induced Edema
Male ICR mice (4 weeks old, Japan Charles River Co., Ltd.) were pre-bred in a breeding cage for about one week, and-healthy mice were selected for the test.
(2) Drugs Employed in the Test:
Each test compound was suspended in a 0.5% carboxymethyl cellulose sodium (0.5% CMC-Na solution, product of Wako Pure Chemical Industries, Ltd.) or dissolved in purified water. The suspension or solution was perorally administered at a dose of 0.1 mL/10 g (body weight of each mouse).
λ-Carrageenan (Picnin A, product of Zushi Kagaku) dissolved in physiological saline was used.
The volume of the right rear leg of each mouse was measured by means of a plethysmometer (product of Ugo Basile). Subsequently, a 2% carrageenan solution (0.05 mL) was injected into the foot pad of the leg. Five days after the injection of carrageenan (inflammation-inducing agent), the volume of the leg was measured. The mice were divided into groups, each group containing 8 mice. From the day of division (i.e., 5 days after administration of carrageenan), each test compound was preorally administered once per day for four days. The leg volume was measured before administration of each test compound and on the day after the final administration day (i.e., 9 days after administration of carrageenan). Percent edema and percent inhibition due to the test compound were calculated in accordance with the following equations, respectively. Percent edema (%)=[(leg volume (mL) after inflammation treatment−leg volume (mL) before inflammation treatment)/(leg volume (mL) before inflammation treatment)]×100 Percent inhibition (%)=[percent edema of control group (%)−percent edema of test-compound-administered group (%))/(percent edema of control group (%))]×100
(In general: Carrageenan injected into the paw causes an acute inflammation.)

The subject of assay [3] is RAW 264.7 cells. The experiment in a line: Effect of inhibiting production of IL-6 in LPS-stimulated RAW 264.7 cells (ELISA). Format: cell-based. Particulars: Mus musculus, RAW264.7, compound at 2 μg/mL, read-out: IL-6 production inhibitory effect Percent inhibition (%). The procedure:
as §1, §2
Background: ELISA stands for enzyme-linked immunosorbent assay.

For the compound “5-(2-[4-(1H-Imidazolylmethyl)phenoxy]ethyl)sulfanil-2,3-diphenylpyrazine [Compound 1I]”, the “NO production inhibitory effect Percent inhibition (%)” value in assay [1] was 62.8%. Usually inhibition stands for how much of the control response was suppressed. `c1ccc(-c2ncc(OCCOc3ccc(Cn4ccnc4)cc3)nc2-c2ccccc2)cc1` [Compound 1A, 5-2-[4-(1H-imidazolylmethyl)phenoxy]ethoxy-2,3-diphenylpyrazine]: the “Percent inhibition (%) of carrageenan-induced edema” value in assay [2] (3 mg/kg perorally once per day for four days) is on record as 30.5%. Further, the inhibition at 2 µg/mL in assay [3] is 54.6%; in assay [1] (Mus musculus, RAW264.7, read-out: NO production inhibitory effect Percent inhibition (%)), 86%. On to `[O-][S+](CCOc1ccc(Cn2ccnc2)cc1)c1cnc(-c2ccccc2)c(-c2ccccc2)n1` (stereo not drawn) [Compound 1J, 5-(2-[4-(1H-imidazolylmethyl)phenoxy]ethyl)sulfinyl-2,3-diphenylpyrazine], for which, in assay [2] (10 mg/kg perorally once per day for four days), the “Percent inhibition (%) of carrageenan-induced edema” value stood at 41.2%. Regarding `COc1ccc2c(c1)c(CC(=O)O)c(C)n2C(=O)c1ccc(Cl)cc1` [Indomethacin], the “Percent inhibition (%) of carrageenan-induced edema” value in assay [2] (1 mg/kg perorally once per day for four days) amounted to 23.8%.

These data come from patent US6958353B2, “Imidazole derivatives or salts thereof and drugs containing the derivatives or the salts” (Hisamitsu Medical Co., Ltd., priority 2000, dated 2005).
